# Measurements published in ChEMBL document CHEMBL3507680, “University of Dundee, Gates Library screen for HepG2 cell viability”.
# Assay: Human HepG2 cell viability assay in 384 well format
# Type: toxicity, cell-based
# Design: dose 125 nL, time 70.5 hour; cytotoxicity at 70.5 h: concentration not given beside the values
# Conditions: HepG2 cells, read-out: Inhibition
row,SMILES,cytotoxicity at 70.5 h
1,O=C(CCOc1ccccc1F)N1CCC(O)CC1,-9.54%
2,CCNC(=O)C1(Cc2cc(-c3ccccc3)no2)CCCN(C(C)=O)C1 (configuration not stated),10.5%
3,CN(C)C(=O)[C@@H]1C[C@@H]2CCN(C3CCOCC3)C[C@@H]2O1,12.2%
4,Cc1cn2c(n1)C(CNCC1=Cc3cc(Cl)ccc3OC1)CCC2 (configuration not stated),3.13%
5,CN(C)c1cc(C(F)(F)F)nc(N2CCCC2c2ccccn2)n1 (configuration not stated),-5.01%
6,CC(=O)N1CCC(Cc2cnc(-n3ccnc3)cn2)CC1,-6.47%
7,Cc1ccoc1C(=O)N1C[C@@H]2COC[C@]2(COCc2cccnc2)C1,-0.687%
8,Cn1cnnc1C1CCCN(C(=O)NCCCn2cccn2)C1 (configuration not stated),-2.61%
9,CC(O)c1cn(Cc2ccc(Cl)cc2Cl)nn1 (configuration not stated),-7.31%
10,COc1cc2c(cc1OC)C(=O)C(Sc1nnc(C)o1)C2 (configuration not stated),-15.9%
11,CCN(C)Cc1cccc(CNC(=O)CSCc2ccncc2)c1,-6.72%
12,O=C1NCCN(C(=O)CCN2CCCO2)C1c1cccc(F)c1 (configuration not stated),4.41%
13,Cc1ccsc1C(=O)N1CC(C(=O)NC(C)C)C2(CCOCC2)C1 (configuration not stated),1.65%
14,O=C(c1cc(C2CC2)on1)N1C[C@H]2CC[C@](O)(c3ccccc3F)[C@H]2C1,-0.256%
15,Cc1cnn(CC2CCN(CC(O)c3ccc(F)cc3)CC2)c1 (configuration not stated),-0.648%
16,COc1ccccc1CCNC(=O)CNCC1CN(C)CCO1 (configuration not stated),-3.47%
17,O=S(=O)(Cc1ccccc1CN1CCOCC(O)C1)c1ccccc1 (configuration not stated),14.8%
18,Cc1ncsc1C(=O)N(Cc1ccccn1)C1CC1,10%
19,CC(C)n1cnnc1CN(C)C(=O)c1cnn2ccccc12,4.09%
20,CC(C)(C)C(=O)N1CC[C@H]2NC(=O)N(c3ccc(F)cc3)C(=O)[C@H]21,-4.77%
21,COc1cc(CNC(=O)c2csc(Br)c2)ccn1,-12.9%

row,SMILES,cytotoxicity at 70.5 h
1,CC(C)=CCN1CCC(c2nnc(CN3CCN(C)CC3)n2C)CC1,35%
2,COCCNCc1cc2ccc(C)c(C)c2[nH]c1=O,4.37%
3,COCCN1C(=O)CC[C@@H]2[C@@H]1CCN2S(=O)(=O)C1CC1,-3.21%
4,c1cnc(N2CCOC3(CCN(CC4CCOC4)CC3)C2)nc1 (configuration not stated),2.18%
5,CCN(Cc1nc(COC)no1)Cc1ccccc1OCC(=O)O,20%
6,COc1ccc(N(C)C(=O)C2CN(C)CCO2)cc1Cl (configuration not stated),8.7%
7,CC[C@@]1(O)CCN(C(=O)c2ccc(SC)cc2)C[C@H]1O,0.602%
8,CCn1nnnc1-c1cccc(NC(=O)CCOC(C)C)c1,-7.16%
9,CCOCC(=O)N1C[C@@H]2COC[C@H](c3nc(C)no3)[C@@H]2C1,-2.34%
10,CCc1nccc(CN2CCCC(CNC(=O)c3ccccn3)C2)n1 (configuration not stated),-3.62%
11,NC(=O)CN(CC1CCOC1)C1CC1 (configuration not stated),-2.08%
12,COc1ccccc1CCNC(=O)N1CCC(n2cncn2)CC1,-7.07%
13,Cc1nc2ccccc2n1Cc1cc(C(=O)N(C)C2CCOCC2)no1,12.4%
14,CCN1CCc2onc(CNc3ncccn3)c2C1,8.16%
15,O=C(c1ccccc1)N1CCCC(Nc2ccc(F)cc2)C1 (configuration not stated),-1.68%
16,Cc1nc(N2CCCC2)nc2c1CN(C(C)C)CC2,-12.7%
17,O=C(c1cscn1)N1CC[C@@H]2[C@@H]1CCN2C1CCOC1 (some centres not stated),-1.49%
18,Cc1ccc(C(=O)N2CC3(CCCCC3)c3cc(C(=O)O)ccc32)cn1,0.0823%
19,O=C(NC1CCCN(c2ccccn2)C1)C1(c2ccccc2F)CC1 (configuration not stated),15.1%
20,CSc1sc(NC(=O)C2CCCN(C(N)=O)C2)nc1C (configuration not stated),-13.6%
21,Cc1cnc(C(=O)NC(COCC(C)C)c2ccco2)cn1 (configuration not stated),-0.693%

row,SMILES,cytotoxicity at 70.5 h
1,CCC(CC)C(=O)N1CCN(C)c2ncccc2C1,-2.64%
2,COc1cc(NC2CCN(C3CCS(=O)(=O)CC3)CC2)ncn1,-20.6%
3,O=C(Cc1c(F)cccc1Cl)NC1CCCCNC1=O (configuration not stated),-5.89%
4,Cc1nc(CN2CCOCC23CCN(c2ccc(C#N)cc2)CC3)cs1,-2.38%
5,COCCN1CCN(c2nc(C3CCCC3)nc3c2cnn3C)CC1,-16.1%
6,O=C(Cc1ccn[nH]1)Nc1cncc(Br)c1O,-2.7%
7,O=C1O[C@@H]2CN(Cc3ccsc3)C[C@@H]2N1Cc1ccccn1,2.38%
8,COc1cccc2c1OCC(C(=O)N1CCC(N3CCSCC3)CC1)C2 (configuration not stated),4.8%
9,Cc1ccc(CN2CCc3c(COCC4CC4)nn(C)c3C2)s1,21.5%
10,COC(=O)CNC(=O)C(C)Oc1ccccc1C(F)(F)F (configuration not stated),-3.31%
11,COc1ccc(C(=O)N(C)Cc2ncc(C)c(OC)c2C)c(OC)c1,-4.31%
12,CC(=O)N1CCCCC1c1nc(N)ncc1-c1ccccc1 (configuration not stated),-24.9%
13,O=C(Cn1cccnc1=O)NC(Cc1ccsc1)c1cccnc1 (configuration not stated),-6.19%
14,Cc1nnc(NC(=O)CSCc2cc(=O)n3ccccc3n2)s1,-4.73%
15,CCN1CCN(C[C@@H]2CN(c3ncc(Cl)cc3Cl)C[C@@H]2CO)CC1,-6.63%
16,COCCc1ncc(CN2CCC3(CCCN(CC4CC4)C3)C2)cn1 (configuration not stated),0.629%
17,Cc1cccc(CN2CCC(Cc3ccccc3F)CC2)n1,0.263%
18,Clc1cc(CN2CCCC(Cn3cncn3)C2)c2ncccc2c1 (configuration not stated),-12.2%
19,Cc1ccc(NC(=O)CN[C@H](C(N)=O)C(C)C)cc1F,13.9%
20,OC1(c2cn(CC3CCN(C4CCSC4)CC3)nn2)CCCC1 (configuration not stated),1.14%
21,CC(C)(O)CNc1ccc(C#N)c(C(F)(F)F)c1,-1.99%

row,SMILES,cytotoxicity at 70.5 h
1,Cc1cc(C(=O)N2CCC(O)(Cn3c(C)cc4ccncc43)CC2)on1,-0.77%
2,Cc1ccc(-n2cnc(Cl)c2CO)cc1,-3.28%
3,CNC(=O)c1cc2c(nc1NCC(C)C)CCN(C)CC2,0.255%
4,COc1ccc2cc(C(=O)N3CCCCC3CC(N)=O)[nH]c2c1 (configuration not stated),-15.1%
5,Cc1cc(C(F)(F)F)nc(C2CCN(C(=O)CO)CC2)n1,-6.47%
6,CCS(=O)(=O)c1ccc(CNc2c(Cl)cccc2C#N)cc1,-1.09%
7,CCC(C)NC(=O)CCc1ccc(OCC(F)(F)F)c(OC)c1 (configuration not stated),-14.7%
8,Cc1ccc(-c2nc(C(=O)N(C)C3CCN(C)CC3)cs2)c(C)c1,-1.64%
9,COc1ccc(-c2nnc(SC(C)C(=O)NC(C)(C)C)[nH]2)c(OC)c1 (configuration not stated),32.5%
10,CC(=O)Nc1nc(C(=O)N2CCCC2Cn2cccn2)cs1 (configuration not stated),-0.875%
11,CCc1ccc(CN2CCC3(CC2)CN(c2cnn(C)c2)C(=O)CO3)o1,-8.17%
12,CCn1ncc2c1C(COC)N(C(=O)c1ccsc1)CC2 (configuration not stated),-6.73%
13,CCOc1ccc(NC(=O)N(CCN(C)C)C(C)c2ccncc2)cc1 (configuration not stated),13.6%
14,CCc1nc(CN2CCCC(N(C)Cc3cnn(C)c3)C2)no1 (configuration not stated),-10.2%
15,FC(F)(F)COCCN1CCN(c2ccc3nncn3n2)CC1,1.24%
16,Cc1cccc(CN2CC3(CCN(Cc4ccco4)CC3)OCC2=O)n1,-3.31%
17,Cc1nccn1CCN(C)c1nc(-c2cccnc2)nc2c1CCNC2,-3.49%
18,CCc1ccc(C(COC)NC(=O)c2ccc(C(N)=O)cc2)o1 (configuration not stated),7.28%
19,Cc1ccc(C)c(Oc2ccc(CNC(=O)C3CCC(=O)N3)cn2)c1 (configuration not stated),-4.69%
